From PubChem BioAssay (NCI)
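GI50 = concentration required for 50% inhibition of growth. TGI: concentration producing complete growth inhibition.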

Assays:
Assay in all cases: NCI anticancer screen, dose series, 384-well format
786-0 renal = tested on: 786-0 renal
A498 renal = tested on: A498 renal
A549 NSCLC = tested on: A549 NSCLC
ACHN renal = tested on: ACHN renal
BT-549 breast = tested on: BT-549 breast
CAKI-1 renal = tested on: CAKI-1 renal
CCRF-CEM leukemia = tested on: CCRF-CEM leukemia
DU-145 prostate = tested on: DU-145 prostate
EKVX NSCLC = tested on: EKVX NSCLC
HCT-116 colon = tested on: HCT-116 colon
HCT-15 colon = tested on: HCT-15 colon
HL-60(TB) leukemia = tested on: HL-60(TB) leukemia
HOP-62 NSCLC = tested on: HOP-62 NSCLC
HOP-92 NSCLC = tested on: HOP-92 NSCLC
HS 578T breast = tested on: HS 578T breast
HT29 colon = tested on: HT29 colon
IGROV1 ovarian = tested on: IGROV1 ovarian
K-562 leukemia = tested on: K-562 leukemia
KM12 colon = tested on: KM12 colon
LOX IMVI melanoma = tested on: LOX IMVI melanoma
M14 melanoma = tested on: M14 melanoma
MALME-3M melanoma = tested on: MALME-3M melanoma
MCF7 breast = tested on: MCF7 breast
MDA-MB-231 breast = tested on: MDA-MB-231 breast
MDA-MB-435 melanoma = tested on: MDA-MB-435 melanoma
MDA-MB-468 breast = tested on: MDA-MB-468 breast
MOLT-4 leukemia = tested on: MOLT-4 leukemia
NCI-H226 lung = tested on: NCI-H226 lung

Compound: N[C@@H]1CCCC[C@H]1N.O=C([O-])C(=O)[O-].[Pt+4]
- GI50 ([…]-0 renal): 3.2 µM
- TGI (786-0 renal): 98.7 µM
- GI50 (A498 renal): 0.939 µM
- TGI (A498 renal): 54.1 µM
- GI50 (A549 NSCLC): 2.61 µM
- TGI (A549 NSCLC): > 100 µM
- GI50 (ACHN renal): 2.88 µM
- TGI (ACHN renal): 20.4 µM
- GI50 (BT-549 breast): 12.1 µM
- TGI (BT-549 breast): 27.8 µM
- GI50 (CAKI-1 renal): 1.03 µM
- TGI (CAKI-1 renal): 31.3 µM
- GI50 (CCRF-CEM leukemia): 2.13 µM
- TGI (CCRF-CEM leukemia): 4.74 µM
- GI50 (DU-145 prostate): 7.47 µM
- TGI (DU-145 prostate): 36 µM
- GI50 (EKVX NSCLC): > 100 µM
- TGI (EKVX NSCLC): > 100 µM
- GI50 (HCT-116 colon): 3.36 µM
- TGI (HCT-116 colon): > 100 µM
- GI50 (HCT-15 colon): 4.11 µM
- TGI (HCT-15 colon): 40.8 µM
- GI50 (HL-60(TB) leukemia): 0.523 µM
- TGI (HL-60(TB) leukemia): 1.82 µM
- GI50 (HOP-62 NSCLC): 7.92 µM
- TGI (HOP-62 NSCLC): > 100 µM
- GI50 (HOP-92 NSCLC): 32.3 µM
- TGI (HOP-92 NSCLC): > 100 µM
- GI50 (HS 578T breast): > 100 µM
- TGI (HS 578T breast): > 100 µM
- GI50 (HT29 colon): 3.78 µM
- TGI (HT29 colon): > 100 µM
- GI50 (IGROV1 ovarian): 16.7 µM
- TGI (IGROV1 ovarian): > 100 µM
- GI50 (K-562 leukemia): 4.56 µM
- TGI (K-562 leukemia): 21.5 µM
- GI50 (KM12 colon): 20.8 µM
- TGI (KM12 colon): > 100 µM
- GI50 (LOX IMVI melanoma): 12.2 µM
- TGI (LOX IMVI melanoma): > 100 µM
- GI50 (M14 melanoma): 8.78 µM
- TGI (M14 melanoma): 52.6 µM
- GI50 (MALME-3M melanoma): 10.7 µM
- TGI (MALME-3M melanoma): 22.8 µM
- GI50 (MCF7 breast): 5.43 µM
- TGI (MCF7 breast): > 100 µM
- GI50 (MDA-MB-231 breast): 25.8 µM
- TGI (MDA-MB-231 breast): > 100 µM
- GI50 (MDA-MB-435 melanoma): 9.49 µM
- TGI (MDA-MB-435 melanoma): > 100 µM
- GI50 (MDA-MB-468 breast): 2.33 µM
- TGI (MDA-MB-468 breast): 7.94 µM
- GI50 (MOLT-4 leukemia): 0.276 µM
- TGI (MOLT-4 leukemia): 0.7 µM
- GI50 (NCI-H226 lung): 12.5 µM
